Reference: US6235736A, “3-anilino-2-cycloalkenone derivatives” (Nikken Chemicals Co., Ltd., priority 1997, dated 2001)

Columns and labels:
[1] = test system: rat neutrophils; assay: Inhibition of superoxide anion release from rat neutrophils (chemiluminescence); format: cell-based; details: Neutrophil, stimulated with 0.3 micro M A23187, read-out: Action suppressing release of superoxide anions from rat neutrophils IC50
Experimental: The release of super oxide anions was measured so as to study the inhibitory effects of the compound of the present invention on inflammatory leukocytes, that is, neutrophils.
Blood sample was collected from Wister rats anestetized with ether. It was superposed on a blood cell separation solution (Polymorphoprep 1.113, Naicomed Farm) and the neutrophils were separated by centrifugation. The neutrophils were resuspended in a Hank's balanced salt solution at a concentration of 0.5×10^4 cells/ml. 0.1 mM of lusigenin and the test substance dissolved in DMSO were added to 2 ml of the cell suspension. The chemiluminescence generated by stimulation of 0.3 maicro M calcium ionophore A23187 was measured by a chemiluminescence reader so as to evaluate the release of super oxide anions.

[2] = test system: antigen-induced bronchoconstriction in guinea-pig; assay: Inhibitory effect on antigen-induced bronchospasm (anti-asthmatic action); format: in vivo, guinea-pig (Hartley male); details: Cavia porcellus; intravenous, 10 minutes before 0.2 mg/kg OA challenge; read-out: Action suppressing antigen induced bronchoconstriction ED50
Experimental: Hartley male guinea-pig was sensitized by intramuscular administration of 35 mg Ovalbumin (OA) at first day and fourth day. After 25 to 29 days of first sensitization, trachial canula was introduced in the guinea pig anesthetized with pentobarbital and artificial ventilation was performed. The overflow of the ventilation was measured by the Konzett Roessler method while 0.2 mg/kg OA were administered intravenously. The test compound was dissolved in polyethylene glycol 400 and intravenously administered 10 minutes before OA challenge.

[3] = test system: TPA induced ear edema in mouse; assay: TPA induced mouse ear edema assay; format: in vivo, mouse (male ICR); details: 0.1 mg applied to right ear immediately after TPA; 6 hour
Experimental: Male ICR mice, 5 week old, were divided into groups of seven to eight. 2 μg of TPA (phorbor 12-ministate; Sigma Co.) in 20 μl acetone was applied to the inner and outer surface of right ear of each mouse to cause a reaction. 0.1 mg of compound was dissolved in 20 μl of a tetrahydrofuran-methanol mixture (mixture ratio 1:1) and the solution (20 μl) applied to the right ear immediately after TPA treatment. After 6 hour, the animals were sacrificed and right ear was punched out (.phi. […]) and weighed. The effect of comppund.was calculated as % inhibition as follows: [formula]

[4] = test system: Type IV PDE; assay: PDE IV inhibitory activity (isozyme partially purified from rat neutrophils, 3H-cAMP substrate); format: biochemical; details: rat neutrophil PDE IV, 30° C., 30 minutes, read-out: PDE IV inhibiting action IC50
Experimental: Type I, III, IV, and V PDE isozymes were prepared to study the PDE inhibitory activities of and selectivities with the compound of the invention [Trends Pharmacol Sci., 12, 19-27 (1991)]. Type I PDE was purchased from Sigma Corp. Type III, IV, and V PDE isozymes were partially purified from platelets (Type III and V) or neutrophils (Type IV) collected from rats. Each enzyme source was homogenized in a buffer (pH 6.5) containing 20 mM bisTris, 2 mM EDTA (i.e., ethlenediamine tetraacetate), 2-mercaptoethanol, 0.001 mM pepstatin and 0.01 mM leupeptin and was centrifuged at 30000×G for 30 minutes to obtain a supernatant, which was applied to an ion exchange column (Q-sepharose first flow, Pharmacia Corp.) and was eluted with 0 to 1M sodium acetate. Partially purified isozymes were identified by observing the inhibitory effects of conventional inhibitors.
Each PDE isozyme and the test compound dissolved in DMSO (i.e., dimethylsulfoxide) were added to 50 mM Tris--HCI buffer containing 5 mM magnesium chloride. ^3 H-cAMP (for type III and IV PDE) or ^3 H-cGMP (for type I and V PDE) were added as substrates and were reacted at 30° C. for 30 minutes. The reaction was terminated by placing the test tube in boiling water of 100° C. for 5 minutes. The nucleotides formed by PDE were broken down to ^3 H-adenosine or ^3 H-guanosine by 5'-nucleotidase. The substrate and reaction product were separated through an ion-exchange column (i.e., QAE sephadex, Pharmacia Corp.)
The eluted ^3 -H-nucleoside was measured for its radioactivity by a liquid scintillation counter. The inhibitory activities of the compound of the present invention are shown by the IC50 value (M). Further, the inhibitory activities of the test samples against type I, III, and V PDE are 1/10 or less than that against Type IV PDE.

[5] = test system: DNFB contact-type dermatitis in mouse; assay: Allergic contact dermatitis assay (DNFB); format: in vivo, mouse (ICR male); details: applied 1 hour before and 5 hours after inducing ear edema; 24 hours
Experimental: 8 to 9 week old ICR type male mice were divided into groups of 8 to 9 each for use. The shaved skin of the ventral surface of each of the mice was applied with a 0.5% DNFB (2,4-dinitrofluorobenzene)acetone-olive oil solution (v/v=4/1) in an amount of 25 μl/day over 2 days to sensitize it. Four days after the second day of sensitization, a 0.2% DNFB acetone-olive oil solution was applied to the ear in an amount of 25 μl to induce contact-type dermatitis. After 24 hours, the thickness of the ear was measured using a dial thickness gauge and the difference with the value before inducing the edema was found. The test compound was dissolved in 25 μl of tetrahydrofuran-methanol (mixture ratio 1:1) and applied two time, that is, 1 hour before inducing the ear edema and 5 hours after it.
In Table 6, the effect of the compound was expressed by the ED50.

[6] = test system: type IV PDE; details: background art (Kokai No. 50-157360); cited from earlier work

IC50 [1] [nM] | IC50 [4] [nM] | SMILES | ED50 [2] [mg/kg] | % Inhibition of ear edema [3] [%] | ED50 (allergic contact dermatitis, ear edema) [5] [μg/site] | specific inhibitory activity against type IV PDE (in words) [6]
120 | 1600 | COc1ccc(NC2=CC(=O)CC2)cc1OC1CCCC1 [Compound No. 1, 3-(3-cyclopentyloxy-4-methoxyanilino)-2-cyclopenten-1-one] | 1.4 | 68.2 |  | 
 | 140 | COc1ccc(NC2=C(C)C(=O)CC2)cc1OC1Cc2ccccc2C1 [Compound No. 10, 3-[3-(2-indanyloxy)-4-methoxyanilino]-2-methyl-2-cyclopenten-1-one] | 0.86 |  |  | 
 | 2400 | COc1ccc(NC2=C(C)C(=O)CC2)cc1OC1CCCCC1 [Compound No. 14, 3-(3-cyclohexyloxy-4-methoxyanilino)-2-methyl-2-cyclopenten-1-one] |  | 73.4 | 16 | 
3300 | 24000 | COc1ccc(NC2=CC(=O)N(Cc3ccccc3)CC2)cc1OC1CCCC1 [Compound No. 22, 1-benzyl-4-(3-cyclopentyloxy-4-methoxyanilino)-1,2,5,6-tetrahydropyridin-2-one] |  | 76.8 | 32 | 
 |  | COc1ccc(C2CNC(=O)C2)cc1OC1CCCC1 (stereo not shown) [Rolipram] |  |  |  | specific inhibitory activity against type IV PDE
410 | 1100 | COc1ccc(NC2=CC(=O)NCC2)cc1OC1CCCC1 [Compound No. 21, 4-(3-cyclopentyloxy-4-methoxyanilino)-1,2,5,6-tetrahydropyridin-2-one] | 1 |  |  | 
190 | 2400 | COc1ccc(NC2=CC(=O)NCC2)cc1O[C@H]1C[C@@H]2CC[C@H]1C2 (relative stereo) [Compound No. 23] |  | 73.0 |  | 
 | 2300 | COc1ccc(NC2=CC(=O)CC2)cc1OCC1(c2ccccc2)CC1 [Compound No. 49, 3-[4-methoxy-3-[(1-phenylcyclopropyl)methoxy]anilino]-2-cyclopenten-1-one] |  | 54.3 |  | 
 | 470 | COc1ccc(NC2=C(C)C(=O)CCC2)cc1OC1CCCC1 [Compound No. 75, 3-(3-cyclopentyloxy-4-methoxyanilino)-2-methyl-2-cyclohexen-1-one] |  | 64.8 |  | 
 | 910 | COc1ccc(N(Cc2ccccc2)C2=CC(=O)CC2)cc1OC1Cc2ccccc2C1 [Compound No. 77, 3-[N-benzyl-3-(2-indanyloxy)-4-methoxyanilino]-2-cyclopenten-1-one] |  | 50.9 |  | 
 | 690 | COc1ccc(NC2=CC(=O)CC2)cc1OC1Cc2ccccc2C1 [Compound No. 9, 3-[3-(2-indanyloxy)-4-methoxyanilino]-2-cyclopenten-1-one] | 5.5 | 72.3 | 94 | 
 | 800 | COc1ccc(N(C)C2=CC(=O)CC2)cc1OC1CCCC1 [Compound No. 26, 3-(3-cyclopentyloxy-4-methoxy-N-methylanilino)-2-cyclopenten-1-one] |  | 82.0 |  | 
 | 50 | CCC1=C(Nc2ccc(OC)c(OC3Cc4ccccc4C3)c2)CCC1=O [Compound No. 32, 2-ethyl-3-[3-(2-indanyloxy)-4-methoxyanilino]-2-cyclopenten-1-one] | 7.34 | 75.5 |  | 
 | 1400 | COc1ccc(N(Cc2ccccc2)C2=CC(=O)CCC2)cc1O[C@@H]1C[C@H]2CC[C@@H]1C2 (relative stereo) [Compound No. 84, 3-[N-benzyl-3-[rel(1R,2R,4S)-bicyclo[2.2. 1]hept-2-yloxy]-4-methoxyanilino]-2-cyclohexen-1-one] |  | 71.8 |  | 
 | 3700 | COc1ccc(NC2=CC(=O)CCC2)cc1OC1CCCC1 [Compound No. 2, 3-(3-cyclopentyloxy-4-methoxyanilino)-2-cyclohexen-1-one] |  | 65.0 |  | 
 | 4400 | CCCCCN(C1=CC(=O)CC1)c1ccc(OC)c(OC2CCCC2)c1 [Compound No. 64, 3-(3-cyclopentyloxy-4-methoxy-N-pentylanilino)-2-cyclopenten-1-one] |  | 52.0 |  | 
 | 530 | COc1ccc(N(Cc2ccc3ccccc3n2)C2=CC(=O)CC2)cc1O[C@@H]1C[C@H]2CC[C@@H]1C2 (relative stereo) [Compound No. 82, 3-[3-[(1RS,2RS,4SR)-bicyclo[2.2. 1]hept-2-yloxy]4-methoxy-N-(2-quinolinemethyl)anilino]-2-cyclopenten-1-one] |  | 84.4 |  | 
140 | 1300 | COc1ccc(NC2=CC(=O)CC2)cc1O[C@@H]1C[C@H]2CC[C@@H]1C2 (racemic) [Compound No. 8, 3-[3-[(1RS,2RS,4SR)-bicyclo[2.2. 1]hept-2-yloxy]-4-methoxyanilino]-2-cyclopenten-1-one] | 3 | 73.1 |  | 
 | 7400 | CCCN(C1=CC(=O)CC1)c1ccc(OC)c(OC2CCCC2)c1 [Compound No. 59, 3-(3-cyclopentyloxy-4-methoxy-N-propylanilino)-2-cyclopenten-1-one] |  | 60.1 |  | 
